{"source": "patent US5932707A", "about": "“Thioether-containing metal chelating compounds” (Nycomed Amersham plc, priority 1993, dated 1999)", "key": {"[1]": {"conditions": "neutral lipophilic technetium complex; cited from earlier work"}, "[2]": {"assay": "Human plasma protein binding of technetium complexes (ultrafiltration)", "type": "in vitro ADME", "conditions": "technetium complex, read-out: PPB % bound (converted)", "method": "Human plasma protein binding was determined by ultrafiltration^(9), such that the percentage of complex bound is an indicator of the affinity of binding.\nThe plasma protein binding figure obtained for a given compound is highly dependent on the method of determination used^(10). Thus equilibrium dialysis measurement may lead to higher PPB figures than those obtained via ultrafiltration due to longer incubation times. Use of serum rather than plasma may also underestimate the true extent of binding. There are also significant interspecies differences."}, "[3]": {"tested_on": "V79-379A Chinese hamster cells", "assay": "Hypoxic and oxic binding of 99mTc labelled compounds to cells in vitro", "type": "cell-based", "conditions": "99mTc complex; for Oxic SN (supernatant): air +5% CO2; for Oxic pellet: air +5% CO2, 37° C.; for Oxic pellet / Hypoxic pellet: 10^6 cells per pellet; for Hypoxic SN (supernatant): nitrogen +5% CO2; for Hypoxic pellet: nitrogen +5% CO2, 37° C.", "method": "V79-379A Chinese hamster cells were harvested from exponential suspension culture and resuspended at 1.1×10^6 cells cm^-3 in Bagle's MEM. 20 cm^3 of cells were transferred to small spinner vessels and gassed with either air +5% CO2 (oxic) or nitrogen +5% CO2 (Hypoxic) at 37° C. After 30 minutes, between 0.5 cm^3 and 1 cm^3 of ^99m Tc labelled compound was added. At timed intervals 1 cm^3 of cell suspension was withdrawn from each flask and chilled on ice in small polystyrene centrifuge tubes. The cells were centrifuged and washed three times in ice-cold medium (Eagle's MEM) to give constant counts in the cell pellet. The pellets were counted in LKB 1282 Compugamma counter. The initial supernatant was diluted 1 in 100 with saline and 1 cm^3 was counted. All samples were counted at the end of the incubation period and counts have been corrected for decay during counting but not for decay during incubation.\nAttempts were made to decrease the amount of non-specific binding by incubating the cell samples in a large volume of medium for one hour at 37° C. under oxic conditions."}, "human erythrocyte ghosts": {"tested_on": "human erythrocyte ghosts", "assay": "Red cell ghost (RCG) uptake", "type": "in vitro ADME", "conditions": "for RCG uptake: technetium complex, human erythrocyte ghosts", "method": "RCG uptake is determined by incubation of a fixed amount of labelled complex with a range of ghost concentrations. The percentage of labelled complex […] is calculated for each ghost concentration to yield a single uptake figure expressed as %/mg protein."}, "[4]": {"assay": "Stability when handled in air", "type": "physicochemical"}}, "data": [{"smiles": "CC(C)(S)CNCCNCC(C)(C)S", "note": "[BAT, reference compound]", "values": [{"measurement": "blood-brain barrier passage", "setting": "[1]", "value": "can cross the blood-brain barrier"}, {"measurement": "fraction unbound", "setting": "[2]", "value": 0.38}]}, {"smiles": "CC(=O)NCSCC(NCC(O)Cn1ccnc1[N+](=O)[O-])C(=O)NCC(=O)NCCN(C)C", "note": "(stereo not drawn) [HL11P]", "values": [{"measurement": "Hypoxic:oxic ratio", "setting": "[3]; 0.5 hrs", "value": 5.79}, {"measurement": "Oxic SN (supernatant)", "setting": "[3]; 0.5 hrs", "value": "25.1 cpm/ml (10^-7)"}, {"measurement": "Oxic pellet", "setting": "[3]; 0.5 hrs", "value": "0.42 cpm (×10^-5)"}, {"measurement": "Hypoxic SN (supernatant)", "setting": "[3]; 0.5 hrs", "value": "22.2 cpm/ml (10^-7)"}, {"measurement": "Hypoxic pellet", "setting": "[3]; 0.5 hrs", "value": "2.15 cpm (×10^-5)"}, {"measurement": "Hypoxic:oxic ratio", "setting": "[3]; 1.0 hrs", "value": 2.91}, {"measurement": "Oxic SN (supernatant)", "setting": "[3]; 1.0 hrs", "value": "24.9 cpm/ml (10^-7)"}, {"measurement": "Oxic pellet", "setting": "[3]; 1.0 hrs", "value": "0.71 cpm (×10^-5)"}, {"measurement": "Hypoxic SN (supernatant)", "setting": "[3]; 1.0 hrs", "value": "22.3 cpm/ml (10^-7)"}, {"measurement": "Hypoxic pellet", "setting": "[3]; 1.0 hrs", "value": "1.85 cpm (×10^-5)"}, {"measurement": "Hypoxic:oxic ratio", "setting": "[3]; 2.0 hrs", "value": 3.86}, {"measurement": "Oxic SN (supernatant)", "setting": "[3]; 2.0 hrs", "value": "25.5 cpm/ml (10^-7)"}, {"measurement": "Oxic pellet", "setting": "[3]; 2.0 hrs", "value": "0.99 cpm (×10^-5)"}, {"measurement": "Hypoxic SN (supernatant)", "setting": "[3]; 2.0 hrs", "value": "22.2 cpm/ml (10^-7)"}, {"measurement": "Hypoxic pellet", "setting": "[3]; 2.0 hrs", "value": "3.33 cpm (×10^-5)"}, {"measurement": "Hypoxic:oxic ratio", "setting": "[3]; 3.0 hrs", "value": 3.60}, {"measurement": "Oxic SN (supernatant)", "setting": "[3]; 3.0 hrs", "value": "25.6 cpm/ml (10^-7)"}, {"measurement": "Oxic pellet", "setting": "[3]; 3.0 hrs", "value": "1.18 cpm (×10^-5)"}, {"measurement": "Hypoxic SN (supernatant)", "setting": "[3]; 3.0 hrs", "value": "22.4 cpm/ml (10^-7)"}, {"measurement": "Hypoxic pellet", "setting": "[3]; 3.0 hrs", "value": "3.72 cpm (×10^-5)"}, {"measurement": "Hypoxic:oxic ratio", "setting": "[3]; 4.0 hrs", "value": 5.07}, {"measurement": "Oxic SN (supernatant)", "setting": "[3]; 4.0 hrs", "value": "26.0 cpm/ml (10^-7)"}, {"measurement": "Oxic pellet", "setting": "[3]; 4.0 hrs", "value": "1.40 cpm (×10^-5)"}, {"measurement": "Hypoxic SN (supernatant)", "setting": "[3]; 4.0 hrs", "value": "22.8 cpm/ml (10^-7)"}, {"measurement": "Hypoxic pellet", "setting": "[3]; 4.0 hrs", "value": "6.22 cpm (×10^-5)"}, {"measurement": "Hypoxic:oxic ratio", "setting": "[3]; 5.0 hrs", "value": 3.26}, {"measurement": "Oxic SN (supernatant)", "setting": "[3]; 5.0 hrs", "value": "25.7 cpm/ml (10^-7)"}, {"measurement": "Oxic pellet", "setting": "[3]; 5.0 hrs", "value": "1.63 cpm (×10^-5)"}, {"measurement": "Hypoxic SN (supernatant)", "setting": "[3]; 5.0 hrs", "value": "22.7 cpm/ml (10^-7)"}, {"measurement": "Hypoxic pellet", "setting": "[3]; 5.0 hrs", "value": "4.70 cpm (×10^-5)"}]}, {"smiles": "CC(=O)NCCNC(=O)CSCCSC1CCCCO1", "note": "(stereo not drawn) [HL15P, N-(2-Acetylaminoethyl)-2-(tetrahydropyran-2-ylthio)ethylthioacetamide]", "values": [{"measurement": "RCG uptake", "setting": "human erythrocyte ghosts", "value": 1.6, "unit": "%/mg protein"}, {"measurement": "fraction unbound", "setting": "[2]", "value": 1}]}, {"smiles": "CC(=O)NCCNC(=O)CCSCCSC1CCCCO1", "note": "(stereo not drawn) [HL49, N-(2-acetylaminoethyl)-3-[2-(tetrahydropyran-2-ylthio)ethylthio]propionamide]", "values": [{"measurement": "RCG uptake", "setting": "human erythrocyte ghosts", "value": 3.6, "unit": "%/mg protein"}, {"measurement": "fraction unbound", "setting": "[2]", "value": 0.82}]}, {"smiles": "CC(=O)NCCCNC(=O)CSCCSC1CCCCO1", "note": "(stereo not drawn) [HL60P, N-(3-acetylamino)propyl-2-(tetrahydropyran-2-ylthio)ethylthioacetamide]", "values": [{"measurement": "RCG uptake", "setting": "human erythrocyte ghosts", "value": 1.1, "unit": "%/mg protein"}, {"measurement": "fraction unbound", "setting": "[2]", "value": 1}]}, {"smiles": "CC(=O)NCCNC(=O)CSCCS", "note": "[HL 15D, N-(2-Acetylaminoethyl)-2-mercaptoethylthioacetamide]", "values": [{"measurement": "tendency to oxidise to the corresponding disulphide", "setting": "[4]", "value": "tended to oxidise to the corresponding disulphide if handled in air"}]}, {"smiles": "CC(=NO)C(C)(C)NCCCNC(C)(C)C(C)=NO", "note": "[PnAO, reference compound]", "values": [{"measurement": "RCG uptake", "setting": "human erythrocyte ghosts", "value": 6.7, "unit": "%/mg protein"}, {"measurement": "fraction unbound", "setting": "[2]", "value": 0.25}]}, {"smiles": "O=C([O-])CN(CCN(CC(=O)[O-])CC(=O)[O-])CCN(CC(=O)[O-])CC(=O)[O-].[99Tc+4]", "note": "[^99m Tc-DTPA, reference compound]", "values": [{"measurement": "RCG uptake (in words)", "setting": "human erythrocyte ghosts; 99mTc complex", "value": "excluded from the ghosts"}]}]}
